Target: T1, NPC1L1 (Homo sapiens, UniProt Q9UHC9)
T1 construct: from tissue; host or cells: small intestine of hypercholesterolemic patients (in vivo, clinical trial)
T1 sequence (Q9UHC9 22-1332 isoform Q9UHC9-2 limits assumed): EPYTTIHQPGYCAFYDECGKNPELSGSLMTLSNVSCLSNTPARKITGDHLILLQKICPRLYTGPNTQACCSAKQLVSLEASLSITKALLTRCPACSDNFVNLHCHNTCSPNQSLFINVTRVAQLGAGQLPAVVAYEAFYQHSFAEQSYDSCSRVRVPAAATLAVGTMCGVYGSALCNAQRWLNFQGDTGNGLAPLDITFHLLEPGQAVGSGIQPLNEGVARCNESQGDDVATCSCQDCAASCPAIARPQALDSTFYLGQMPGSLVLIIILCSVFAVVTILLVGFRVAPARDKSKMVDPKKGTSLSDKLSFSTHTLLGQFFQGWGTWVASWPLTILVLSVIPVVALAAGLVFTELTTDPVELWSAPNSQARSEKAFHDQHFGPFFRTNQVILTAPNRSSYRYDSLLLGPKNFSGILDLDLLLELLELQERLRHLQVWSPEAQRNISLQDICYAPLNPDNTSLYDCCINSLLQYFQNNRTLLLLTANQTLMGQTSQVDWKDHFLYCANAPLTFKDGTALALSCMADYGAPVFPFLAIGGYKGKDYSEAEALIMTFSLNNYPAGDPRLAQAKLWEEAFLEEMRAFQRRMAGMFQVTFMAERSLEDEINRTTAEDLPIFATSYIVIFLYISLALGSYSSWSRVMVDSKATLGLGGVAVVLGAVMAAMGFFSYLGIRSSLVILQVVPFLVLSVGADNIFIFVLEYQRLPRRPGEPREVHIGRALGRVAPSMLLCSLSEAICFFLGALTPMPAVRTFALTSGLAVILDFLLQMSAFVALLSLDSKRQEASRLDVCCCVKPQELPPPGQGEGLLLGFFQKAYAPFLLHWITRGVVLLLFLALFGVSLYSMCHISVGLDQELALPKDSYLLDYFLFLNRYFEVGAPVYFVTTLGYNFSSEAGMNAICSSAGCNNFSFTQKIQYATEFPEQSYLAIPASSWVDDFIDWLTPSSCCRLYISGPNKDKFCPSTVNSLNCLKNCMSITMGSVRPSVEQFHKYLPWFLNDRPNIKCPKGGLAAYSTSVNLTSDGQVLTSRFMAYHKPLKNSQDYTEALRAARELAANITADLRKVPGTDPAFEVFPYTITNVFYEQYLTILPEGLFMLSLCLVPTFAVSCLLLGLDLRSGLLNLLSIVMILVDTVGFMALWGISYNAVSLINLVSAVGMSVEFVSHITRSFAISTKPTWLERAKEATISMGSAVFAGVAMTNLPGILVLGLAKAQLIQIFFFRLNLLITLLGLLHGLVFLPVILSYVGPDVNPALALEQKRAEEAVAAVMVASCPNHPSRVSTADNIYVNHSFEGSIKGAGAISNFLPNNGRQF
Experiment: EASE trial: LDL-C response to six weeks of ezetimibe 10 mg/day added to stable statin therapy, analysed by NPC1L1 genotype/haplotype
Assay type: in vivo
Details: for Least-Squares (adjusted) Mean (Stderr), percent change in LDL-C: extreme responders; for Least-Squares adjusted Mean (n/Std error), percent change from baseline LDL-C: EASE cohort N = 1195; for Least-Squares (adjusted) Mean (n,/Stderr), percent change in LDL-C: Extreme responders (<10th or >90th percentile) N = 239
Method: Genotyping assays were developed for a number of novel and known common variants with minor allele frequencies greater than 4% that were identified in Example 1. Genetic association analysis was performed with these SNPs in a clinical trial cohort (EASE), described below, to assess whether DNA sequence variants in NPC1L1 are associated with changes in the levels of a variety of plasma cholesterol components in hypercholesterolemia patients in response to pharmacotherapy with ezetimibe and statins as compared to patients treated with a statin and placebo.
To study whether variations in NPC1L1 were associated with response to ezetimibe added to statin therapy, a study population was derived from the Ezetimibe Add-On to Statin for Effectiveness (EASE) Trial (Pearson et al., (2005) Mayo Clinic Proceedings, In Press). The EASE trial was a community-based, randomized, double-blind, placebo controlled study to evaluate the effects of six weeks of ezetimibe, 10 mg/day, added on to a stable regimen of statin therapy, on lipid biomarkers in hypercholesterolemic patients whose LDL-C levels exceeded the National Cholesterol Education Program (NCEP) Adult Treatment Panel (ATP) m guidelines for their coronary heart disease (CHD) risk category. At enrollment, patients taking a stable dose of statin (any dose, any brand) and following a NCEP Step 1 diet or similar cholesterol-lowering diet for at least six weeks prior to entry into the study were randomized to either the ezetimibe (n=2020, 2009 received the treatment) or placebo (n=1010, 1009 received the treatment) arm. From the ezetimibe group, 1208 patients provided consent for genomic analysis and were included in this study. A series of clinical measures corresponding to various cardiovascular risk factors were measured from samples obtained from all trial participants and are summarized by Pearson et al., supra.
Twenty one SNPs from Table 4 (Example 1) were converted to valid genotyping assays, thirteen of which had allele frequencies greater than 2% in all EASE sub-populations. TaqMan Allelic Discrimination assays (Livak, (1999) Genet. Anal. 14:143-49) were performed using Primer Express software and the Assay-by-Design service offered by Applied Biosystems (Foster City, Calif.). […] All probe/primer sets were designed to function using universal reaction and cycling conditions.
The twenty one selected SNPs were genotyped in 1,208 individuals participating in the ezetimibe+statin treatment arm of the EASE trial. A series of clinical measures corresponding to various cardiovascular risk factors were taken on all trial participants (Tables 4a-d). Thirteen selected SNPs genotyped in the EASE cohort were confirmed as having common allele frequencies in this cohort, i.e., an allele frequency of greater than 2% in all EASE sub-populations. […] This could reflect the increased power in the larger EASE cohort to make such detections (see Table 5).
The mean (SD) for total plasma cholesterol, HDL cholesterol (HDL-C), and LDL cholesterol (LDL-C) was 211.0 (34.9), 48.6 (11.5), and 129.1 (30.0) mg/dL, respectively (Pearson et al., supra). […] The distribution of these measurements was similar in the subjects enrolled in this genetic study (Pearson et al., supra). […] No significant associations were found between these response predictive variables and any of the tagging SNPs.
Genetic association analysis was carried out in the EASE cohort with LDL-C response to ezetimibe treatment considered as the primary outcome variable. Individual SNPs, haplotypes, and haplotype combinations were the principal explanatory variables used in the analyses. General linear models were used to estimate the effects of genotypes, haplotypes, and diplotypes on the LDL-C response phenotype. Baseline LDL-C levels, sex, age, and race were investigated to determine if they gave rise to significant effects. Baseline LDL-C levels associated with significant effects in all models and were therefore included in all analyses. […]

[1] = Caucasian ethnic subgroup, g.-18C > A C/A

- Least-Squares (adjusted) Mean (Stderr), percent change in LDL-C [1]: −32.81 (3.83) %
- Least-Squares (adjusted) Mean (Stderr), percent change in LDL-C (Caucasian ethnic subgroup, g.1679C > G C/G): −26.61 (3.58) %
- Least-Squares (adjusted) Mean (Stderr), percent change in LDL-C (Caucasian ethnic subgroup, g.1679C > G G/G): −39.00 (10.81) %
- Least-Squares adjusted Mean (Std error), percent change from baseline LDL-C (Caucasian ethnic subgroup, g.-18C > A A/A): −27.19 (3.49) %
- Least-Squares adjusted Mean (Std error), percent change from baseline LDL-C [1]: −28.22 (0.96) %
- Least-Squares adjusted Mean (Std error), percent change from baseline LDL-C (Caucasian ethnic subgroup, g.-18C > A C/C): −24.34 (0.60) %
- Odds Ratio, extreme responder association with SNP (Caucasian ethnic subgroup, g.-18C > A, 95% CI 1.27 to 4.39): 2.36
- Least-Squares adjusted Mean (Std error), percent change from baseline LDL-C (Caucasian ethnic subgroup, g.-133A > G A/A): −26.59 (0.73) %
- Least-Squares adjusted Mean (Std error), percent change from baseline LDL-C (Caucasian ethnic subgroup, g.-133A > G A/G): −24.78 (0.77) %
- Least-Squares adjusted Mean (Std error), percent change from baseline LDL-C (Caucasian ethnic subgroup, g.-133A > G G/G): −22.80 (1.72) %
- Least-Squares adjusted Mean (Std error), percent change from baseline LDL-C (Caucasian ethnic subgroup, g.1679C > G (L272L) C/C): −24.66 (0.65) %
- Least-Squares adjusted Mean (Std error), percent change from baseline LDL-C (Caucasian ethnic subgroup, g.1679C > G (L272L) C/G): −26.58 (0.85) %
- Least-Squares adjusted Mean (Std error), percent change from baseline LDL-C (Caucasian ethnic subgroup, g.1679C > G (L272L) G/G): −28.18 (2.51) %
- Least-Squares adjusted Mean (Std error), percent change from baseline LDL-C (Caucasian ethnic subgroup, g.19224G > A A/A): −31.64 (6.56) %
- Least-Squares adjusted Mean (Std error), percent change from baseline LDL-C (Caucasian ethnic subgroup, g.19224G > A G/A): −24.81 (1.31) %
- Least-Squares adjusted Mean (Std error), percent change from baseline LDL-C (Caucasian ethnic subgroup, g.19224G > A G/G): −25.56 (0.55) %
- Least-Squares adjusted Mean (Std error), percent change from baseline LDL-C (Caucasian ethnic subgroup, g.19259T > C C/C): −24.95 (2.01) %
- Least-Squares adjusted Mean (Std error), percent change from baseline LDL-C (Caucasian ethnic subgroup, g.19259T > C T/C): −25.61 (0.84) %
- Least-Squares adjusted Mean (Std error), percent change from baseline LDL-C (Caucasian ethnic subgroup, g.19259T > C T/T): −25.44 (0.67) %
- Least-Squares adjusted Mean (Std error), percent change from baseline LDL-C (Caucasian ethnic subgroup, g.28650A > G A/A): −24.63 (0.64) %
- Least-Squares adjusted Mean (Std error), percent change from baseline LDL-C (Caucasian ethnic subgroup, g.28650A > G A/G): −26.90 (0.87) %
- Least-Squares adjusted Mean (Std error), percent change from baseline LDL-C (Caucasian ethnic subgroup, g.28650A > G G/G): −26.52 (2.57) %
- Least-Squares adjusted Mean (n/Std error), percent change from baseline LDL-C (g.-18C > A A/A): −27.27 (22/3.61) %
- Least-Squares adjusted Mean (n/Std error), percent change from baseline LDL-C (g.-18C > A C/A): −27.85 (298/0.98) %
- Least-Squares adjusted Mean (n/Std error), percent change from baseline LDL-C (g.-18C > A C/C): −24.16 (875/0.57) %
- Least-Squares adjusted Mean (n/Std error), percent change from baseline LDL-C (g.-133A > G A/A): −25.92 (629/0.68) %
- Least-Squares adjusted Mean (n/Std error), percent change from baseline LDL-C (g.-133A > G A/G): −24.58 (477/0.78) %
- Least-Squares adjusted Mean (n/Std error), percent change from baseline LDL-C (g.-133A > G G/G): −22.56 (89/1.80) %
- Least-Squares adjusted Mean (n/Std error), percent change from baseline LDL-C (g.1679C > G C/C): −24.50 (723/0.63) %
- Least-Squares adjusted Mean (n/Std error), percent change from baseline LDL-C (g.1679C > G C/G): −25.77 (417/0.83) %
- Least-Squares adjusted Mean (n/Std error), percent change from baseline LDL-C (g.1679C > G G/G): −28.77 (55/2.29) %
- Least-Squares adjusted Mean (n/Std error), percent change from baseline LDL-C (g.19224G > A A/A): −31.64 (/6.94) %
- Least-Squares adjusted Mean (n/Std error), percent change from baseline LDL-C (g.19224G > A G/A): −25.07 (/1.34) %
- Least-Squares adjusted Mean (n/Std error), percent change from baseline LDL-C (g.19224G > A G/G): −25.11 (/0.53) %
- Least-Squares adjusted Mean (n/Std error), percent change from baseline LDL-C (g.19259T > C C/C): −26.38 (/1.98) %
- Least-Squares adjusted Mean (n/Std error), percent change from baseline LDL-C (g.19259T > C T/C): −25.01 (/0.82) %
- Least-Squares adjusted Mean (n/Std error), percent change from baseline LDL-C (g.19259T > C T/T): −25.07 (/0.64) %
- Least-Squares adjusted Mean (n/Std error), percent change from baseline LDL-C (g.28650A > G A/A): −24.40 (/0.60) %
- Least-Squares adjusted Mean (n/Std error), percent change from baseline LDL-C (g.28650A > G A/G): −26.50 (/0.89) %
- Least-Squares adjusted Mean (n/Std error), percent change from baseline LDL-C (g.28650A > G G/G): −27.19 (/2.65) %
- mean LDL-C change from baseline (EASE cohort, heterozygous for the minor allele of g.−18C>A (298/1195)): 27.8%
- mean LDL-C change from baseline (EASE cohort, homozygous for the common allele of g.−18C>A (n=875/1195)): 24.2%
- mean change in LDL-C (EASE cohort, homozygous for the minor allele of g.−18C>A (n=22/1195)): 27.3%
- Least-Squares (adjusted) Mean (n,/Stderr), percent change in LDL-C (g.-18C > A C/A): −33.98 (62/4.05) %
- Least-Squares (adjusted) Mean (n,/Stderr), percent change in LDL-C (g.-18C > A C/C): −16.85 (177/2.40) %
Compound: O=C1[C@H](CC[C@H](O)c2ccc(F)cc2)[C@@H](c2ccc(O)cc2)N1c1ccc(F)cc1 [ezetimibe, 1-(4-fluorophenyl)-3(R)-[3-(4-fluorophenyl)-3(S)-hydroxypropyl]-4(S)-(4-hydroxyphenyl)-2-azetidinone]

From US20090192135A1, “Human Niemann Pick C1-Like 1 Gene (NPC1L1) Polymorphisms and Methods of Use Thereof” (SCHERING CORPORATION, priority 2005, published 2009)
